Reference: patent publication US10172957B2, “Acid-labile lipophilic prodrugs of cancer chemotherapeutic agents” (priority 2011, dated 2019)

What was measured:
[1] = system: MES-SA/Dx5 doxorubicin-resistant subline (MDR+); experiment: cells; format: cell-based, human; conditions: for IC50: Homo sapiens, MES-SA/Dx5, read-out: IC50 MESSA/Dx5 (MDR + Hs); for Degree of resistance (MESSA/Dx5): IC50 of the resistant line divided by IC50 of sensitive MES-SA cells
From the text: A second evaluation of the cytotoxicity of the acid labile, lipophilic molecular conjugates was undertaken.
These lines included a uterine sarcoma line, MES-SA, and its doxorubicin-resistant subline, MES-SA/Dx5. See W. G. Harker, F. R MacKintosh, and B. I. Sikic. Development and characterization of a human sarcoma cell line, MES-SA, sensitive to multiple drugs. Cancer Research 43: 4943-4950 (1983); W. G. Harker and B. I. Sikic. Multidrug (pleiotropic) resistance in doxorubicin-selected variants of the human sarcoma cell line MES-SA. Cancer Research 45: 4091 4096 (1985).
MES-SA/Dx5 cells express high levels of ABCB1 (MDR1) mRNA and its gene product, the P-glycoprotein. MES-SA and MES-SA/Dx5 were purchased from the American Type Culture Collection (ATCC, Manassas, Va.).

[2] = Stability in rat plasma at 37° C.; format: in vitro ADME
Method: The stability of the acid labile, lipophilic molecular conjugates to hydrolysis in plasma was evaluated to determine their potential to release the active cancer chemotherapeutic agents into systemic circulation and thereby cause general off target toxicity (“side effects”). The conjugates were incubated with plasma of mouse, rat and human origin.
HPLC grade Methanol from Fisher (Fair lawn, NJ, USA). Part No: A452-4 (074833). HPLC grade Water from Fisher (Fair lawn, NJ, USA). Part No: W5-4 (073352). Drug-free mouse, rat and human plasmas were purchased from Innovative Research Inc. (Southfield, Mich., USA). LIPOSYN® I.V. (30% soybean oil and egg yolk phospholipids, Abbott Laboratories) Fat Emulsion from Hospira, Inc. (Lake Forest, Ill.).
Each drug (ART 198, ART 273, ART 488 and ART 489) was prepared in triplicate in mouse, rat and human plasma individually at […] concentration and vortexed for 1 minute and placed in a water bath at 37° C. at a shake rate of 75 per minute. Samples were drawn at time points of 0, 15, 30, 45, 60, 75, 90, 105, 120, 135, 150, 165, 180, 210, 240, 300, 360 and 480 minutes.
Chromatographic separation of the compounds was performed on a Waters Acquity UPLC™ using a BEH C18 column (1.7 μm, 2.1×50 mm). The mobile phase consisted of Methanol: 0.1% Formic acid (80:20). The flow rate was 0.3 ml/min; the sample injection volume was 5 μL, resulting in a 3 minute run time.
The MS instrumentation consisted of a Waters Micromass Quattro Micro™ triple-quadrupole system (Manchester, UK). The MS system was controlled by a 4.0 version of MassLynx software. Ionization was performed in the positive electrospray ionization mode. MS/MS conditions were the following: capillary voltage 3.02 kV; cone voltage 50 v; extractor voltage 5 v; and RF lens voltage 0.5 v. The source and desolvation temperatures were 100° C. and 400° C. respectively, and the desolvation and cone gas flow were 400 and 30 L/hr, respectively.
The selected mass-to-charge (m/z) ratio transitions of the ART 198 used in the selected ion monitoring (SIM) were: for ART 198, 617 (M+K)^+, for ART 273, 589 (M+K)^+, for ART 488, 913 (M+Na)^+, and for ART 489, 957 (M+Na)^+. The dwell time was set at 200 msec. MS conditions were optimized using direct infusion of standard solutions prepared in methanol and delivered by a syringe pump at a flow rate of 20 μL/min.
Samples of 100 μL were collected at time points of 0, 15, 30, 45, 60, 75, 90, 105, 120, 135, 150, 165, 180, 210, 240, 300, 360 and 480 minutes respectively and the reaction was terminated with methanol. In a separate set of experiments the acid labile, lipophilic molecular conjugates were dissolved in a small amount of ethanol and diluted into a lipid emulsion (Liposyn®) and added to mouse and human plasma before incubation and the hydrolysis of the conjugates was similarly measured. Collected plasma samples of 100 μL containing drug were placed in separate Eppendorf micro centrifuge tubes for processing. Methanol (200 μL) was added to extract the drug using the protein precipitation technique. The micro tubes were then vortex mixed for 10 minutes and centrifuged for 15 minutes at a speed of 10,000 rpm (Eppendorf 5415C centrifuge). The supernatant was collected and filtered using a 0.45 μm filter (Waters 13 mm GHP 0.45 μm) before analysis.
The weighted linear least-squares (1/x) regression was used as the mathematical model. The coefficient (r) for the compounds ranged from 0.9925 to 0.9999. The calibration range was selected according to the concentrations anticipated in the samples to be determined.
Samples were collected at various times and the percent remaining of the acid labile, lipophilic molecular conjugate of the cancer chemotherapeutic agent was determined along with the percent of the chemotherapeutic agent released from the hydrolysis of the conjugate.

Row | Compound | IC50 [1] | Degree of resistance (MESSA/Dx5) [1] | percent remaining of initial drug ([2]; 0 min) | percent remaining of initial drug ([2]; 15 min) | percent remaining of initial drug ([2]; 30 min) | percent remaining of initial drug ([2]; 45 min) | percent remaining of initial drug ([2]; 60 min) | percent remaining of initial drug ([2]; 75 min) | percent remaining of initial drug ([2]; 90 min) | percent remaining of initial drug ([2]; 105 min) | percent remaining of initial drug ([2]; 120 min) | percent remaining of initial drug ([2]; 135 min) | percent remaining of initial drug ([2]; 150 min) | percent remaining of initial drug ([2]; 165 min) | percent remaining of initial drug ([2]; 180 min) | percent remaining of initial drug ([2]; 210 min) | percent remaining of initial drug ([2]; 240 min) | percent remaining of initial drug ([2]; 300 min) | percent remaining of initial drug ([2]; 360 min) | percent remaining of initial drug ([2]; 480 min)
1 | COC(=O)[C@@]12OC[C@]34[C@H]([C@@H](O)[C@@H]1O)[C@@]1(C)CC(=O)C(O)=C(C)[C@@H]1C[C@H]3OC(=O)C(OC(=O)CC1(O)CCCCC1)[C@@H]24 (stereo partly shown) [ART 198] | 376 ± 110 nM | 7.9 ± 0.6 | 100% | 95.8% | 84.0% | 66.0% | 55.7% | 54.4% | 54.2% | 54.0% | 52.1% | 48.9% | 48.9% | 45.4% | 44.0% | 42.7% | 42.2% | 34.3% | 30.1% | 30.1%
2 | CCCCCCCCCCCCCCCC1OCC(COC(=O)O[C@@H]2C(=O)C=C(C)[C@@H]3C[C@H]4OC(=O)C(OC(=O)CC(O)(C(C)C)C(C)C)C5[C@@H](C)[C@@H](O)[C@@]6(O)OC[C@@]54C6[C@@]23C)O1 (stereo partly shown) [ART 488] | 7 ± 5.7 nM | 4.3 ± 1.8 | – | – | – | – | – | – | – | – | – | – | – | – | – | – | – | – | – | 33.3%
3 | CCCCCCCCCCCCCCCC1OCC(COC(=O)OC2=C(C)[C@@H]3C[C@H]4OC(=O)C(OC(=O)CC5(O)CCCCC5)[C@H]5[C@]6(C(=O)OC)OC[C@]45[C@H]([C@@H](O)[C@@H]6O)[C@@]3(C)CC2=O)O1 (stereo partly shown) [ART 489] | 17 ± 5.7 nM | 4.3 ± 3.8 | 100% | 93.2% | 75.8% | 74.3% | 75.0% | 74.4% | 74.4% | 73.7% | 69.9% | 68.5% | 67.3% | 63.0% | 63.0% | 62.7% | 61.7% | 55.4% | 48.2% | 34.3%
